Results published in publication PMC10252594 (Cancers, 2023).
Where “and” joins values, the source holds several entries; their conditions need not be identical. Equal values may be shown once. Read-outs that look alike come from different tables or passages of the source. Marks after values point to notes of the source that are not given here.

What was measured:
Type in all cases: cell-based, human
LAPC-4 cells [1] = assay: LAPC-4 cell viability proliferation and combination index assays (MTS, 6 days)
Method: LAPC-4 cells (1 × 10^4 cells/well) were seeded in triplicate in 96-well plates in IMDM (Iscove’s modified Dulbecco’s medium) (90 μL) supplemented (v/v) with 5% fetal FBS, 1% L-glutamine, 1% insulin, and 1% penicillin/streptomycin. The cells were incubated at 37 °C in a 5% CO2 humidified atmosphere for 24 h. […] After 6 days of incubation, the cell proliferation was determined by adding 10 µL of MTS followed by incubation at 37 °C for 4 h. Plates were then analyzed at 490 nm using a Tecan M-200 microplate reader (Männedorf, Switzerland). Using GraphPad Prism 7 software, the IC50 values were calculated. The values represent the average of two independent experiments performed in triplicate. According to the Chou–Talalay method and using the following formula, the CI (combination) was calculated. CI=(D)1/(DX)1+(D)2/(DX)2
Denominators (DX)l and (DX)2 are the doses of individual drugs required to achieve a given effect level, and numerators (D)1 and (D)2 are the concentrations of each drug present in combination to trigger the same effect level. When the drugs interact additively, CI = 1, but a CI < 1 indicates a synergistic interaction, and a CI > 1 indicates an antagonistic effect.

LAPC-4 cells [2] = assay: Apoptosis characterization by flow cytometry (annexin-V/PI); settings: 72 h
Method: This experiment was performed with LAPC-4 cells (3 × 10^5) following the protocol previously reported for PC-3 cells. After the detection of annexin-V and propidium iodide fluorescence, dual parametric dot plots allowed us to calculate the percentage of each cell type: (1) non-apoptotic live cells (annexin-V-negative/PI-negative) in the lower left quadrant; (2) early apoptotic cells (annexin-V-positive/PI-negative) in the lower right quadrant; (3) late apoptotic cells (annexin-V-positive/PI-positive) in the upper right quadrant; and (4) necrotic cells (annexin-V-negative/PI-positive) in the upper left quadrant.

LAPC-4 cells [3] = assay: Gene expression study by qPCR; settings: RM-581 5 µM or atorvastatin 10 µM, CTL fixed at 1.0
Method: LAPC-4 cells (3 × 10^5) were treated with RM-581 (1, 2, and 5 µM) at different times (6, 18, 24, and 36 h) and the expression of various genes was determined as previously reported. Primer sequences used for the analysis of each gene are reported in Table S3 (Supplementary Materials).

C#C[C@]1(O)CC[C@H]2[C@@H]3CCc4cc(OC)c(N5CCN(C(=O)[C@@H]6CCCN6C(=O)c6ccc7ccccc7n6)CC5)cc4[C@H]3CC[C@@]21C [RM-581]
IC50 (LAPC-4 cells [1]; Homo sapiens, LAPC4, 144 h, LAPC-4, six days of treatment, read-out: IC50, single experiments (Figure 2A)): 450 nM | IC50 (LAPC-4 cells [1]; Homo sapiens, LAPC4, 144 h, LAPC-4, six days, slightly different culture conditions, read-out: IC50, single experiments (Figure 3)): 510 nM | IC50 (LAPC-4 cells [1]; Homo sapiens, LAPC4, 144 h, LAPC-4, six days, slightly different culture conditions, read-out: Mean IC50 (Figure 3)): 570 ± 140 nM | IC50 (LAPC-4 cells [1]; Homo sapiens, LAPC4, 144 h, LAPC-4, six days, single drugs and 1:1 combinations, read-out: IC50 (Figure 2B)): 560 nM | IC50 (LAPC-4 cells [1]; Homo sapiens, LAPC4, LAPC-4, read-out: IC50 in LAPC-4 cells, approximate summary value): ~500 nM | IC50 (LAPC-4 cells [1]; LAPC-4, six days of treatment, read-out: IC50, single experiments (Figure 2A)): 300 nM and 550 nM | IC50 (LAPC-4 cells [1]; LAPC-4, six days, slightly different culture conditions, read-out: IC50, single experiments (Figure 3)): 470 nM and 730 nM | early and late apoptotic cells (LAPC-4 cells [2]; 2 to 50 µM): significant and increasing proportion | necrotic cells (LAPC-4 cells [2]; 30 and 50 µM): very low and non-significant | viable cells (LAPC-4 cells [2]; 30 and 50 µM, dropped from 92%): 20% | ACAT1 mRNA expression (LAPC-4 cells [3]; 6 h): 0.7 * | ACLY mRNA expression (LAPC-4 cells [3]; 6 h): 0.8 | FASN mRNA expression (LAPC-4 cells [3]; 6 h): 1.0 | HMGCR mRNA expression (LAPC-4 cells [3]; 6 h): 1.9 ** | HMGCS1 mRNA expression (LAPC-4 cells [3]; 6 h): 2.7 ** | LDLR mRNA expression (LAPC-4 cells [3]; 6 h): 1.4 | MVD mRNA expression (LAPC-4 cells [3]; 6 h): 2.7 ** | MVK mRNA expression (LAPC-4 cells [3]; 6 h): 1.2 | SCD1 mRNA expression (LAPC-4 cells [3]; 6 h): 0.7 | ACAT1 mRNA expression (LAPC-4 cells [3]; 18 h): 0.9 | ACLY mRNA expression (LAPC-4 cells [3]; 18 h): 0.4 ** | FASN mRNA expression (LAPC-4 cells [3]; 18 h): 0.5 ** | HMGCR mRNA expression (LAPC-4 cells [3]; 18 h): 1.2 | HMGCS1 mRNA expression (LAPC-4 cells [3]; 18 h): 3.3 ** | LDLR mRNA expression (LAPC-4 cells [3]; 18 h): 1.8 ** | MVD mRNA expression (LAPC-4 cells [3]; 18 h): 1.8 ** | MVK mRNA expression (LAPC-4 cells [3]; 18 h): 1.6 | SCD1 mRNA expression (LAPC-4 cells [3]; 18 h): 0.8 | ACAT1 mRNA expression (LAPC-4 cells [3]; 24 h): 1.1 | ACLY mRNA expression (LAPC-4 cells [3]; 24 h): 0.9 | FASN mRNA expression (LAPC-4 cells [3]; 24 h): 0.6 * | HMGCR mRNA expression (LAPC-4 cells [3]; 24 h): 2.6 ** | HMGCS1 mRNA expression (LAPC-4 cells [3]; 24 h): 2.4 ** | LDLR mRNA expression (LAPC-4 cells [3]; 24 h): 2.6 ** | MVD mRNA expression (LAPC-4 cells [3]; 24 h): 2.1 ** | MVK mRNA expression (LAPC-4 cells [3]; 24 h): 1.0 | SCD1 mRNA expression (LAPC-4 cells [3]; 24 h): 2.5 ** | ACAT1 mRNA expression (LAPC-4 cells [3]; 36 h): 1.2 | ACLY mRNA expression (LAPC-4 cells [3]; 36 h): 0.9 | FASN mRNA expression (LAPC-4 cells [3]; 36 h): 0.6 * | HMGCR mRNA expression (LAPC-4 cells [3]; 36 h): 2.5 ** | HMGCS1 mRNA expression (LAPC-4 cells [3]; 36 h): 2.0 ** | LDLR mRNA expression (LAPC-4 cells [3]; 36 h): 2.5 ** | MVD mRNA expression (LAPC-4 cells [3]; 36 h): 1.6 ** | MVK mRNA expression (LAPC-4 cells [3]; 36 h): 1.0 | SCD1 mRNA expression (LAPC-4 cells [3]; 36 h): 3.5 **
